# Assay results taken from patent publication EP0336446A1, “Gene and gene product for the production of beta-lactam-compounds” (BIOCHEMIE GESELLSCHAFT M.B.H., priority 1988, dated 1989).
# Where “and” joins values, the source holds several entries; their conditions need not be identical. Identical values can stand only once.
# Columns and labels:
# [1] = test system: Micrococcus luteus ATCC 9341/BC 85; assay: Agar diffusion test of penicillin standards (inhibition zone diameter); type: cell-based
# PAT [2] = biological target: T1, PAT (Penicillium chrysogenum, UniProt P15802); assay: Substrate specificity of purified PAT (fraction AL 278/2), specific enzyme activity by HPLC; type: biochemical, Penicillium chrysogenum P2/ATCC 48271
# PAT [3] = biological target: T1, PAT; assay: Microbiological test of 6-APA-PaCoA acyltransferase activity (acylation of 6-APA with PaCoA to Penicillin V), indicator strain Micrococcus luteus ATCC 9341/BC 85; type: biochemical, Penicillium chrysogenum P2/ATCC 48271; details: Stabilisierung, 5% Sorbit / 1 mM PMSF / 1% BSA / 10% Glycerin / 5% Mannit / 100 µg 6-APA/ml
# [4] = labelled substance = Acylakzeptor, Acyldonator PaCoA
# [5] = labelled substance = Acylakzeptor, Acyldonator PeCoA
# [6] = labelled substance = Acyldonator, Acylakzeptor H₂O, Produkt 6-APA
# T1 sequence (P15802 103-357 limits assumed): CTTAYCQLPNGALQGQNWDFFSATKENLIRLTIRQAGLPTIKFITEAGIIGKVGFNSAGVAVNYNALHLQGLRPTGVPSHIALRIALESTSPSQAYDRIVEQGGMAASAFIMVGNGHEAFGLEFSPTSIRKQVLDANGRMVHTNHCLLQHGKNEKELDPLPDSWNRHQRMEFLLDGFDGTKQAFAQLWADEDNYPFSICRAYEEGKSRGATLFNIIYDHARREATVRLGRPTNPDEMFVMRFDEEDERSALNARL
# T1 sequence (P15802 1-102 limits assumed): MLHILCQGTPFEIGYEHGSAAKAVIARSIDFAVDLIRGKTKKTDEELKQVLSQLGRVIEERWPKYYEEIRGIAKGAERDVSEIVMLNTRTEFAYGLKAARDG
compound,measurement,setting,value
Penicillin,antibakterielle Sensitivität gegenüber Penicillin als gegenüber 6-APA,"[1]; Micrococcus luteus ATCC 9341, relative to 6-APA",mehr als drei Zehnerpotenzen
CC1(C)S[C@@H]2[C@H](NC(=O)CCC[C@H](N)C(=O)O)C(=O)N2[C@H]1C(=O)O [Isopenicillin N],mittels HPLC bestimmte spezifische Enzymaktivität (mU/mg Protein) A1 278/2,PAT [2]; [4],146 mU/mg Protein
same,mittels HPLC bestimmte spezifische Enzymaktivität (mU/mg Protein) A1 278/2,PAT [2]; [5],80 mU/mg Protein
same,mittels HPLC bestimmte spezifische Enzymaktivität (mU/mg Protein) A1 278/2,PAT [2]; [6],150 mU/mg Protein
CC1(C)S[C@@H]2[C@H](NC(=O)COc3ccccc3)C(=O)N2[C@H]1C(=O)O [Penicillin V],mittels HPLC bestimmte spezifische Enzymaktivität (mU/mg Protein) A1 278/2,PAT [2]; [5],99 mU/mg Protein
same,mittels HPLC bestimmte spezifische Enzymaktivität (mU/mg Protein) A1 278/2,PAT [2]; [6],75 mU/mg Protein
same,zone of inhibition at 0.25 µg/mL,"[1]; Micrococcus luteus, ATCC9341, 15 h, Penicillin V Std. 0.25 µg/ml, read-out: HH ⌀ mm",9.7 mm
same,zone of inhibition at 0.5 µg/mL,"[1]; Micrococcus luteus, ATCC9341, 15 h, Penicillin V Std. 0.5 µg/ml, read-out: HH ⌀ mm",17.6 mm
same,zone of inhibition at 1 µg/mL,"[1]; Micrococcus luteus, ATCC9341, 15 h, Penicillin V Std. 1.0 µg/ml, read-out: HH ⌀ mm",21.7 mm
same,zone of inhibition at 1.5 µg/mL,"[1]; Micrococcus luteus, ATCC9341, 15 h, Penicillin V Std. 1.5 µg/ml, read-out: HH ⌀ mm",24 mm
same,zone of inhibition at 2 µg/mL,"[1]; Micrococcus luteus, ATCC9341, 15 h, Penicillin V Std. 2.0 µg/ml, read-out: HH ⌀ mm",25.3 mm
same,HH ⌀ mm,[1]; Penicillin V Std. 0.25 µg/ml,11.9 mm
same,HH ⌀ mm,[1]; Penicillin V Std. 0.5 µg/ml,17.8 mm and 18.4 mm
same,HH ⌀ mm,[1]; Penicillin V Std. 1.0 µg/ml,23.4 mm
same,HH ⌀ mm,[1]; Penicillin V Std. 1.5 µg/ml,24.7 mm
same,HH ⌀ mm,[1]; Penicillin V Std. 2.0 µg/ml,27.4 mm
CC(=O)OCC1=C(C(=O)O)N2C(=O)[C@@H](N)[C@H]2SC1 [7-ACA],mittels HPLC bestimmte spezifische Enzymaktivität (mU/mg Protein) A1 278/2,PAT [2]; [4],0 mU/mg Protein
OCC(O)CO [Glycerin],6-APA-PaCoA Transacylierungsaktivität (mm HH Ø),"PAT [3]; 24 h bei +4°C, reaction 30', control ohne Zusatz Spur",11.5 mm
same,6-APA-PaCoA Transacylierungsaktivität (mm HH Ø),"PAT [3]; 24 h bei +4°C, reaction sofort, control ohne Zusatz 0",0 mm
same,6-APA-PaCoA Transacylierungsaktivität (mm HH Ø),"PAT [3]; 24 h bei -20°C, reaction 30', control ohne Zusatz 38",38 mm
same,6-APA-PaCoA Transacylierungsaktivität (mm HH Ø),"PAT [3]; 24 h bei -20°C, reaction sofort, control ohne Zusatz 15.2",15.2 mm
same,6-APA-PaCoA Transacylierungsaktivität (mm HH Ø),"PAT [3]; Testung sofort, reaction 30', control ohne Zusatz 33.4",33.1 mm
same,6-APA-PaCoA Transacylierungsaktivität (mm HH Ø),"PAT [3]; Testung sofort, reaction sofort, control ohne Zusatz 21.5",22.0 mm
CC1(C)S[C@@H]2[C@H](NC(=O)Cc3ccccc3)C(=O)N2[C@H]1C(=O)O [Penicillin G],mittels HPLC bestimmte spezifische Enzymaktivität (mU/mg Protein) A1 278/2,PAT [2]; [4],25 mU/mg Protein
same,mittels HPLC bestimmte spezifische Enzymaktivität (mU/mg Protein) A1 278/2,PAT [2]; [6],17 mU/mg Protein
